Measurements published in ChEMBL document CHEMBL5291721, “A preclinical secondary pharmacology resource illuminates target-adverse drug reaction associations of marketed drugs” (Nat Commun, 2023).

How the values were obtained:
[1] = biological target: T1, Prostaglandin G/H synthase 1 (Rattus norvegicus, UniProt Q63921); type: functional
T1 sequence (Q63921 whole entry): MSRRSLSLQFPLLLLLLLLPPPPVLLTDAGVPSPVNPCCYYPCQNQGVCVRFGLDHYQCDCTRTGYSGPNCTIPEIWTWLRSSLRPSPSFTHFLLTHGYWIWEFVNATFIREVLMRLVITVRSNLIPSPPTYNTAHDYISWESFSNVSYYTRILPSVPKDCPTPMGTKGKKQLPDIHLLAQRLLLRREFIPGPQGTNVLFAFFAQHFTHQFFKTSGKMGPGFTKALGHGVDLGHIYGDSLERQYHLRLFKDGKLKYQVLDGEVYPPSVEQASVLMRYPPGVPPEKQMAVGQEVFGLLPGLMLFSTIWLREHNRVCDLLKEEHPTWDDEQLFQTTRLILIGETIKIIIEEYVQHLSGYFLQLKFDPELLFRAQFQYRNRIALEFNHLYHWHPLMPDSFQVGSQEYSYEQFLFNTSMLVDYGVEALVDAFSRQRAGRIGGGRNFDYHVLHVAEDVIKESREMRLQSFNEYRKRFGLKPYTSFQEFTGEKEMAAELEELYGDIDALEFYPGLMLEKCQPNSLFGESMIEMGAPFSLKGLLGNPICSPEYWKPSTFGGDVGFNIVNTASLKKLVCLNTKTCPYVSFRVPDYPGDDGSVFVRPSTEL

[2] = biological target: T2, Type-1 angiotensin II receptor (Homo sapiens, UniProt P30556)
T2 sequence (P30556 whole entry): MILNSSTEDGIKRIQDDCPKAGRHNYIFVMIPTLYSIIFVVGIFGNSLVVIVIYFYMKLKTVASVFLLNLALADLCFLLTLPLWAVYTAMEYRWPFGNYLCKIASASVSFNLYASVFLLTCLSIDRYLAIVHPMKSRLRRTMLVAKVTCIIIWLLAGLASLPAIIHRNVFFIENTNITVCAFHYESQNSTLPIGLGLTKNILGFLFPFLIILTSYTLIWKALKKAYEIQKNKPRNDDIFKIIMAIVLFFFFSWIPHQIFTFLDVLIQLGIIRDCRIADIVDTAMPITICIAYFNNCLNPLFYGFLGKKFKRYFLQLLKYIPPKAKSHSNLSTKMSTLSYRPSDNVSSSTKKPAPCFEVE

[3] = biological target: T3, Alpha-1A adrenergic receptor (Homo sapiens, UniProt P35348); type: functional, cell-based
T3 sequence (P35348 whole entry): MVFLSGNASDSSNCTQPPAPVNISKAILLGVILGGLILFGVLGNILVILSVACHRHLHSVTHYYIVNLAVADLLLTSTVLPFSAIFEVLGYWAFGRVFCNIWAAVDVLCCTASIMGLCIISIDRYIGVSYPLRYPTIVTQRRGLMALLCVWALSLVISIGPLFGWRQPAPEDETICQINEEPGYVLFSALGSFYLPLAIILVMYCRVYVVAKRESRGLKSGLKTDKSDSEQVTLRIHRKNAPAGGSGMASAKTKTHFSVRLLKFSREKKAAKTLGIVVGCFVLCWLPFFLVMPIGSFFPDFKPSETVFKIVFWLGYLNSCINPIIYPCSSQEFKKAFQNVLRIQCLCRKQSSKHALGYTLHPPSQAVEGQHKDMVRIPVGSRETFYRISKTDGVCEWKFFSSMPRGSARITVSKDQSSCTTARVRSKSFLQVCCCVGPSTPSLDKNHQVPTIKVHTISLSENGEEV

Histamine H2 receptor = Histamine H2 receptor (Homo sapiens, UniProt P25021); type: functional, cell-based
Vasopressin V2 receptor = Vasopressin V2 receptor (Homo sapiens, UniProt P30518)
[4] = biological target: Delta-type opioid receptor (Homo sapiens, UniProt P41143)
[5] = biological target: Gamma-aminobutyric acid receptor subunit alpha-1 (Rattus norvegicus, UniProt P62813); type: functional
[6] = biological target: T3, Alpha-1A adrenergic receptor; type: functional, cell-based; remark: listed apart in the source
[7] = biological target: Beta-1 adrenergic receptor (Homo sapiens, UniProt P08588); type: functional
D(3) dopamine receptor = D(3) dopamine receptor (Homo sapiens, UniProt P35462)
[8] = biological target: 3',5'-cyclic-AMP phosphodiesterase 4D (Homo sapiens, UniProt Q08499); type: functional
[9] = biological target: T4, 5-hydroxytryptamine receptor 2C (Homo sapiens, UniProt P28335)
T4 sequence (P28335 whole entry): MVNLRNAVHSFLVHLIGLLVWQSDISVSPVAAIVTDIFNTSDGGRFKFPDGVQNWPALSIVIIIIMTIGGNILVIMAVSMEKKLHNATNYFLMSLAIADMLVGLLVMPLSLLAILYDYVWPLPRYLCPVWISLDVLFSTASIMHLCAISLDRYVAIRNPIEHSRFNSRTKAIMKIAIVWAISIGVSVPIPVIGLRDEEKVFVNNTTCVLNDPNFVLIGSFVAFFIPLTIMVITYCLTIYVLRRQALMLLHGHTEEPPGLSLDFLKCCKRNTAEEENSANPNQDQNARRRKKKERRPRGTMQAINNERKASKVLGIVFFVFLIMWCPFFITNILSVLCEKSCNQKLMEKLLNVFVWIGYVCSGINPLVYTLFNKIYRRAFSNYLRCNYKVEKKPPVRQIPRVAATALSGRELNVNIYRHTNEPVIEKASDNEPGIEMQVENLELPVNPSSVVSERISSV

Motilin receptor = Motilin receptor (Homo sapiens, UniProt O43193)
[10] = biological target: Kappa-type opioid receptor (Homo sapiens, UniProt P41145)
[11] = biological target: Sodium-dependent noradrenaline transporter (Homo sapiens, UniProt P23975)
[12] = biological target: Beta-2 adrenergic receptor (Homo sapiens, UniProt P07550)
[13] = biological target: Voltage-dependent L-type calcium channel subunit alpha-1C (Rattus norvegicus, UniProt P22002); type: functional
Also: assay procedure not described here.

D(3) dopamine receptor, sequence (P35462 whole entry): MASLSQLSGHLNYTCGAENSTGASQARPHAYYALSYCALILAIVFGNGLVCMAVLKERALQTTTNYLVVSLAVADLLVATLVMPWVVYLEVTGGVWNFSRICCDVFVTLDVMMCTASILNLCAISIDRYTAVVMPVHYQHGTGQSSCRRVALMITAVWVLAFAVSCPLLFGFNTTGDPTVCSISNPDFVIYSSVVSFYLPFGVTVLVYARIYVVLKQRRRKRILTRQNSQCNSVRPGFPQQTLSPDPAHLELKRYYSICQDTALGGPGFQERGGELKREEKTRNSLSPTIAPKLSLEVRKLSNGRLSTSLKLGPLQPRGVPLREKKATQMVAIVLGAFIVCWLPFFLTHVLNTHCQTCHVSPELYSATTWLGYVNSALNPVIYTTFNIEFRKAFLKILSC
Histamine H2 receptor, sequence (P25021 whole entry): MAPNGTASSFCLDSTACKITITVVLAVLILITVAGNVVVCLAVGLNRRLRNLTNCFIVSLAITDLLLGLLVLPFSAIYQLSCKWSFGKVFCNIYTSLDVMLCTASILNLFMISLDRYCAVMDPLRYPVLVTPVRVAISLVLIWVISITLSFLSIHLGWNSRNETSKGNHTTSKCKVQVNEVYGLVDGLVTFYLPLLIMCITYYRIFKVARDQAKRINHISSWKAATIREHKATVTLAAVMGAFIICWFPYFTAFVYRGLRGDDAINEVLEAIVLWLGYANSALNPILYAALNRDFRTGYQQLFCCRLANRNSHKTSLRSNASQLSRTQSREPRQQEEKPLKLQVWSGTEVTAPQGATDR
Motilin receptor, sequence (O43193 whole entry): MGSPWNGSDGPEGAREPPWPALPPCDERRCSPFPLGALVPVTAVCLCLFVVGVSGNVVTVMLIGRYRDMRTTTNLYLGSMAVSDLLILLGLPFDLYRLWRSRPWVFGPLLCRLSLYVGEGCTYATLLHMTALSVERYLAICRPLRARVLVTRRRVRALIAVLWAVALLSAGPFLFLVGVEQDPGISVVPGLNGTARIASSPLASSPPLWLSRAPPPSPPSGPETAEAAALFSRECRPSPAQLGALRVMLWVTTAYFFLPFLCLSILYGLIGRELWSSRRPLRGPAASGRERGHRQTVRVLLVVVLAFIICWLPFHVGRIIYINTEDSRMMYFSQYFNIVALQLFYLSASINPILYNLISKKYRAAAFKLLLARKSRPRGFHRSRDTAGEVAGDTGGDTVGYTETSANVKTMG
Delta-type opioid receptor, sequence (P41143 whole entry): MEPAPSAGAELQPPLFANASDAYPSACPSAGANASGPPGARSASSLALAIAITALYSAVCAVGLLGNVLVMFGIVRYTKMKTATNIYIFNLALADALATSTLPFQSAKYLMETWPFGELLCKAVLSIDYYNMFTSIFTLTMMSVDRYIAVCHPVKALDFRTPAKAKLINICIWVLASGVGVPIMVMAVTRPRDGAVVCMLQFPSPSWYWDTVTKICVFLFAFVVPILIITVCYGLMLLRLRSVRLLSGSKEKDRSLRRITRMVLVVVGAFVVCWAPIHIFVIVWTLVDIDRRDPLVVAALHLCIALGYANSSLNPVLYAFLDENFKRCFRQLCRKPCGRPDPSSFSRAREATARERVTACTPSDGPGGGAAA
Gamma-aminobutyric acid receptor subunit alpha-1, sequence (P62813 whole entry): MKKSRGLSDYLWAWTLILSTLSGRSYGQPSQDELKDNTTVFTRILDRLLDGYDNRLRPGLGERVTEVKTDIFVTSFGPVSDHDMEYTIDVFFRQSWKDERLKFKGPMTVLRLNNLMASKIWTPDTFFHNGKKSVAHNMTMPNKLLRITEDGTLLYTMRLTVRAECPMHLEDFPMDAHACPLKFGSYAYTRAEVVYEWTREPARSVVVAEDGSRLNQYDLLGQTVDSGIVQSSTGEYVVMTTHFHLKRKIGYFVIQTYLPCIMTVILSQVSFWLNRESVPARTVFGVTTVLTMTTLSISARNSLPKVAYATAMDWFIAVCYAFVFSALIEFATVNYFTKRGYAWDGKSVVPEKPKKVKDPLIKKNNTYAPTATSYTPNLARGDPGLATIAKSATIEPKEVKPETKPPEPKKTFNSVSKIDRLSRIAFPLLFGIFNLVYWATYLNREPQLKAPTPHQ
Sodium-dependent noradrenaline transporter, sequence (P23975 whole entry): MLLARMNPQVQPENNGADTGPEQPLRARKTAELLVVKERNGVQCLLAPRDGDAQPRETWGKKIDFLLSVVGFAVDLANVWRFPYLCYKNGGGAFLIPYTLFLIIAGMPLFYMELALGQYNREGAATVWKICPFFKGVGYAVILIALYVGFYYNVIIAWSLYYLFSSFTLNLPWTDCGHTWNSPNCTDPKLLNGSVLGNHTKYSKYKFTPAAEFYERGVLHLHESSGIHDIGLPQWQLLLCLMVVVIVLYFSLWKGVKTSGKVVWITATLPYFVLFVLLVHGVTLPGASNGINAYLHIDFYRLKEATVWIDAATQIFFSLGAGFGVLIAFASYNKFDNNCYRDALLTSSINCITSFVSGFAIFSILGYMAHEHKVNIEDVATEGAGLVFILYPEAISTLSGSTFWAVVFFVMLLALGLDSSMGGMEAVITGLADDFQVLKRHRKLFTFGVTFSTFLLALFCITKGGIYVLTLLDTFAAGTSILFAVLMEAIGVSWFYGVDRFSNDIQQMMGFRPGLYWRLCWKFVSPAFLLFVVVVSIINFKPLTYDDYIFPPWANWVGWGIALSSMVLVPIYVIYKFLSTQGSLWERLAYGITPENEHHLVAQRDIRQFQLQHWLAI
Kappa-type opioid receptor, sequence (P41145 whole entry): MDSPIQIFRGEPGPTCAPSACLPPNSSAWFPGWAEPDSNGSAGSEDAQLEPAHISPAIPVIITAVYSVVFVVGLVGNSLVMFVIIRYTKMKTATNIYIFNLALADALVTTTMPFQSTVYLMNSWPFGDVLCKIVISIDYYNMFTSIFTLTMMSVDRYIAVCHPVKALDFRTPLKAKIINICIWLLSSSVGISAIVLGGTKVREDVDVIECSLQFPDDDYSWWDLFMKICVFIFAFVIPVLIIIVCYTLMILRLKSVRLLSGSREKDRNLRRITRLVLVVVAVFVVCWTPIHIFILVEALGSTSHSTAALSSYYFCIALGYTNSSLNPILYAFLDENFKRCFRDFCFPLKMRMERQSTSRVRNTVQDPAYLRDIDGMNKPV
Vasopressin V2 receptor, sequence (P30518 whole entry): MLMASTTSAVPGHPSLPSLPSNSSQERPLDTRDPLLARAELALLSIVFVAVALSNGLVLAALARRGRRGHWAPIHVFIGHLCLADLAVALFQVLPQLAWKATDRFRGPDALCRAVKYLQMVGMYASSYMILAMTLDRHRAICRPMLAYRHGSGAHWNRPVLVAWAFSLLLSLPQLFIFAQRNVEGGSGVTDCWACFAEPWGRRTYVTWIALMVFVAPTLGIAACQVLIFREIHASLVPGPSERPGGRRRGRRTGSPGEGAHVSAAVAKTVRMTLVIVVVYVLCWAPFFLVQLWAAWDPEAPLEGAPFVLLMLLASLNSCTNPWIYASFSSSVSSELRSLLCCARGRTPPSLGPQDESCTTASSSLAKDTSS
3',5'-cyclic-AMP phosphodiesterase 4D, sequence (Q08499 whole entry): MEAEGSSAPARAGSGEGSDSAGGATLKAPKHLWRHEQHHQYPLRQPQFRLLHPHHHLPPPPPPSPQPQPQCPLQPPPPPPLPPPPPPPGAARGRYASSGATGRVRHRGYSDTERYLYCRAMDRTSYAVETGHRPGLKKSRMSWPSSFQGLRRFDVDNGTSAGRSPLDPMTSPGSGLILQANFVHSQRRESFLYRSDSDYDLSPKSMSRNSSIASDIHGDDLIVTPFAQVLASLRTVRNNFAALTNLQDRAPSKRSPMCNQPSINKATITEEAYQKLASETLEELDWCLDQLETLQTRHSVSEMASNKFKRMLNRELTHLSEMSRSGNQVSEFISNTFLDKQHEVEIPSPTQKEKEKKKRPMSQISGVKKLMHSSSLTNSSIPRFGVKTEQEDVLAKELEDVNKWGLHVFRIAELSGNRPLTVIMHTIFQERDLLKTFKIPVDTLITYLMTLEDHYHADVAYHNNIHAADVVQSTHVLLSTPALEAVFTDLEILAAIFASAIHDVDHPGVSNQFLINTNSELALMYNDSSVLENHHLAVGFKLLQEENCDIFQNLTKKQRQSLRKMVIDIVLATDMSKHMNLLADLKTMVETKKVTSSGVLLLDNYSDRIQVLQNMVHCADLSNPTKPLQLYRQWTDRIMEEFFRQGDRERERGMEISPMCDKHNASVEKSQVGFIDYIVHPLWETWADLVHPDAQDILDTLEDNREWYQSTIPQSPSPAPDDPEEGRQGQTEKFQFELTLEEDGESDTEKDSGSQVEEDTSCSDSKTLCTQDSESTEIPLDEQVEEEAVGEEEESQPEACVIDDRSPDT
Beta-1 adrenergic receptor, sequence (P08588 whole entry): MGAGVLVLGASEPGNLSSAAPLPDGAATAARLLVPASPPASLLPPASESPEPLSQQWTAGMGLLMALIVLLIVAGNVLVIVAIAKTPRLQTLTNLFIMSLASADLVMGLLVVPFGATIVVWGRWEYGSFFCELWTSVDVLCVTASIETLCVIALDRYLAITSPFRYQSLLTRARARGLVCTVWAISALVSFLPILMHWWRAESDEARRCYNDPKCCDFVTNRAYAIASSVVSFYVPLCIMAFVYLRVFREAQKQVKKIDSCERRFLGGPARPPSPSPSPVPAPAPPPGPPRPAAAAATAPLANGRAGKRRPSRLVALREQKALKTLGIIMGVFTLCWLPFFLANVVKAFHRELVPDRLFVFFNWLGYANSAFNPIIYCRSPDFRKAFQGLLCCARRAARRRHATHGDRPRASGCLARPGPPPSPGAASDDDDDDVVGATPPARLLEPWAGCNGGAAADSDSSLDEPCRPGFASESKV

| Compound | AC50 [1] | AC50 [2] | AC50 [3] | AC50 (Histamine H2 receptor) | AC50 (Vasopressin V2 receptor) | AC50 [4] | AC50 [5] | AC50 [6] | AC50 [7] | AC50 (D(3) dopamine receptor) | AC50 [8] | AC50 [9] | AC50 (Motilin receptor) | AC50 [10] | AC50 [11] | AC50 [12] | AC50 [13] |
| --- | --- | --- | --- | --- | --- | --- | --- | --- | --- | --- | --- | --- | --- | --- | --- | --- | --- |
| CCCC(CCC)C(=O)O[C@H]1C[C@H]2CC[C@@H](C1)[N+]2(C)C [ANISOTROPINE] | > 30 µM | > 30 µM | 19 µM | > 30 µM | > 30 µM | > 30 µM | > 30 µM | > 30 µM | > 30 µM | > 30 µM | > 30 µM | > 30 µM | > 30 µM | > 30 µM |  |  |  |
| CC/C=C\C/C=C\C/C=C\CCCCCCCC(=O)O [LINOLENIC ACID] | 6.3 µM | > 30 µM | > 30 µM | > 30 µM | > 30 µM | > 30 µM | > 30 µM | > 30 µM | > 30 µM | > 30 µM | > 30 µM | > 30 µM | > 30 µM | > 30 µM | > 30 µM |  |  |
| Nc1nc2ccc(OC(F)(F)F)cc2s1 [RILUZOLE] | > 30 µM | > 30 µM | > 30 µM | > 30 µM | > 30 µM | > 30 µM | > 30 µM | > 30 µM | > 30 µM | > 30 µM | 14 µM | > 30 µM | > 30 µM | > 30 µM | 19 µM |  |  |
| O=C1CN=C(c2ccccc2)c2cc(Cl)ccc2N1CC(F)(F)F [HALAZEPAM] | > 30 µM | > 30 µM | > 30 µM | > 30 µM | > 30 µM | > 30 µM | 0.506 µM | > 30 µM | > 30 µM | > 30 µM | > 30 µM |  | > 30 µM | 20 µM | > 30 µM |  |  |
| [H]/N=C(/N)c1ccc(NCc2nc3cc(C(=O)N(CCC(=O)O)c4ccccn4)ccc3n2C)cc1 [DABIGATRAN] | > 30 µM | > 30 µM | > 30 µM | > 30 µM | > 30 µM | > 30 µM | > 30 µM | > 30 µM | > 30 µM | > 30 µM | > 30 µM | > 30 µM | > 30 µM | > 30 µM | > 30 µM |  |  |
| CCCOc1ccc(C(=O)OCCN(CC)CC)cc1N [PROPARACAINE] | 0.75 µM | > 30 µM | > 30 µM | > 30 µM | > 30 µM | > 30 µM | > 30 µM | > 30 µM | > 30 µM | > 30 µM | > 30 µM | > 30 µM | > 30 µM | > 30 µM | > 30 µM |  |  |
| COc1ccc(C(=O)N2CCN(c3ccc4c(c3)CCC(=O)N4)CC2)cc1OC [VESNARINONE] | > 30 µM | > 30 µM | > 30 µM | > 30 µM | > 30 µM | > 30 µM | > 30 µM | > 30 µM | > 30 µM | > 30 µM | > 30 µM | > 30 µM | > 30 µM | > 30 µM | > 30 µM | > 30 µM |  |
| Cc1cccc(C)c1NC(=O)C1CCCCN1C (stereo not drawn) [MEPIVACAINE] | > 30 µM | > 30 µM | > 30 µM | > 30 µM | > 30 µM | > 30 µM | > 30 µM | > 30 µM | > 30 µM | > 30 µM | > 30 µM | > 30 µM | > 30 µM | > 30 µM | > 30 µM |  |  |
| Cc1c(Cl)cccc1Nc1ccccc1C(=O)O [TOLFENAMIC ACID] | 0.6 µM | > 30 µM | 9.5 µM | > 30 µM | > 30 µM | > 30 µM | > 30 µM | > 30 µM | > 30 µM | > 30 µM | > 30 µM | > 30 µM | > 30 µM | > 30 µM |  |  | > 30 µM |
| O=C1NCCN1CCN1CCC(c2cn(-c3ccc(F)cc3)c3ccc(Cl)cc23)CC1 [SERTINDOLE] | > 30 µM | > 30 µM | 0.64 µM | > 30 µM | 27 µM | > 30 µM | > 30 µM | > 30 µM |  |  | 20 µM |  | 4.3 µM | 3.7 µM | 2.7 µM |  | > 30 µM |
| Nc1ncnc2c1ncn2[C@@H]1O[C@H](COP(=O)(O)O)[C@@H](O)[C@H]1O [ADENOSINE PHOSPHATE] | > 30 µM | > 30 µM | > 30 µM | > 30 µM | > 30 µM | > 30 µM | > 30 µM | > 30 µM | > 30 µM | > 30 µM | 14 µM | > 30 µM | > 30 µM | > 30 µM | > 30 µM | > 30 µM |  |
| CCCCCOC(=O)Nc1nc(=O)n([C@@H]2O[C@H](C)[C@@H](O)[C@H]2O)cc1F [CAPECITABINE] | > 30 µM | > 30 µM | > 30 µM | > 30 µM | > 30 µM | > 30 µM | > 30 µM | > 30 µM | > 30 µM | > 30 µM | > 30 µM | > 30 µM | > 30 µM | > 30 µM | > 30 µM |  |  |
| CCCCCCC(C)(C)c1cc(O)c2c(c1)OC(C)(C)C1CCC(=O)CC21 (stereo not drawn) [NABILONE] | > 30 µM | > 30 µM | > 30 µM | > 30 µM | > 30 µM | > 30 µM | > 30 µM | > 30 µM | > 30 µM | > 30 µM | > 30 µM | > 30 µM | > 30 µM | > 30 µM | > 30 µM |  |  |
